Where two headings read alike, the source gives them in different places.
Key:
[1] = tested on: tetrabenazine-induced ptosis; assay: Prevention of Tetrabenazine-Induced Ptosis in Mice; format: in vivo, mice (male); conditions: Mus musculus, po, read-out: Antidepressant activity ED50
Source text: The test method and results are described below.
Tetrabenazine (TBZ) induces behavioral depression with concomitant ptosis in mice similar to reserpine. Antidepressant compounds, both monoamineoxidase inhibitors and tricyclics, are known to prevent or antagonize these effects and the degree of antagonism correlates with clinical efficacy. The prevention of […] ptosis in mice is used as a preliminary screen for possible antidepressant activity. The method used in this invention is as follows:
Male mice weighing 20 to 30 grams are used in test groups of five subjects. All compounds are dissolved or suspended with a suitable surfactant in distilled water and administered in volumes of 10 ml/kg of body weight. TBZ solution is made from the methanesulfonate salt and the concentration is adjusted to enable administration of 60 mg/kg of base by intraperitoneal (i.p.) injection.
The pretreatment time is measured from the time of dosing to observation. Therefore, when a 30-minute pretreat is utilized, drug and TBZ are given simultaneously. A control group received solvent and TBZ at intervals identical to drug group. For a primary screen, the drug is administered i.p. and a group size of five is utilized. Eight animals/group are used for a dose range.
The total score for each group of five in a primary screen will, therefore, be from 0 to 20 and these scores are used as indications of drug activity.
The vehicle control group score is used as a determinant of the validity of each test. […] The calculation of percent inhibition of ptosis is: [formula]

[2] = tested on: sensitivity of mice to pressure stress (artery clip on tail); assay: Modified Haffner's analgesia (artery clip on tail); format: in vivo, mice (male, Charles River, CD-1); conditions: Mus musculus, sc, read-out: Modified Haffner's Analgesia ED50
Source text: The latter assay is used to evaluate analgesic activity by measuring drug-induced changes in the sensitivty of mice to pressure stress by placing an artery clip (21/2 inches long) on their tail. The procedure used is a modification of the test developed by Haffner, Dtsch. Med. Wschr. 55, 731 (1929), and it is described below:
Male mice (Charles River, CD-1) from 18-30 grams are used for the test. An artery clip is applied to the root of the tail of a mouse (approximately 1/2 inch from the body) to induce pain. The animals quickly responds to this noxious stimuli by biting the clip or the location of the clip. This reaction time, the interval between stimulus onset and response, is recorded on 1/10 second increments by a stop watch.
For a time response, the screening dose (25 mg/kg) is administered subcutaneously (10 ml/kg) to the animal receiving food and water ad libitum before testing. Animals receiving the compound orally are fasted 18-24 hours before drug administration. Drug to be tested is prepared with distilled water and if insoluble, one drop of a surfactant is added.
Twenty-eight animals (seven/group) are administered the drug 15, 30, 45 and 60 minutes prior to testing.
The cut-off time (CO) is determined by taking the (x) average+3 standard (SD) deviation of the combined response latencies of the control mice in all time periods.
Any reaction time, in subsequent drug tests, which is greater than the CO (for the same time period) therefore exceeds 99% of normal Gaussian distribution and is called "positive response" indicative of analgesic activity. A time response indicates the period of greatest analgesic effect after dosing. The ED50 is determined at the peak time of drug activity. A minimum of three dose groups are used. ED50 's are calcualted using computer analysis.

[3] = tested on: 2-phenyl-1,4-benzoquinone-induced writhing; assay: 2-phenyl-1,4-benzoquinone-induced writhing (PQW) test in mice; format: in vivo; conditions: Mus musculus, sc, read-out: PQW ED50
Source text: Compounds I of the present invention are useful as analgesic agents due to their ability to alleviate pain in mammals. […] Exptl. Biol. Med., 95, 729 (1957)] and in modified Haffner's analgesia.

[4] = tested on: supramaximal electroshock (extensor tonus); assay: Anticonvulsant activity, supramaximal electroshock (SES) assay; format: in vivo; conditions: ip; male mouse, at peak activity time
Description: Compounds I of the present invention are also useful as anticonvulsant agents due to their anticonvulsant activity in mammals. Anticonvulsant activity is measured in the male mouse using the supramaximal electroshock (SES) assay described in Arch. Int. Pharmacodyn. 92:97-107, 1952. In this procedure groups of animals are used. Drugs are prepared using distilled water and, if insoluble, a surfactant is added. Control animals receive vehicle. Drugs are routinely administered intraperitoneally (i.p.). The dosage volume is 10 ml/kg. A primary screen is given a 30 minute pretreat. The animal's eyes are placed across the output terminals of an A.C. shocker that delivers 206 volts rms for 300 msec. Electrode paste coats the animals eyes at the point of contact with the terminals. […] Protection is expressed as normalized percent inhibition relative to vehicle control.
A time response is carried out using six animals/group. Animals are tested at 30, 60 and 120 minutes postdrug. Additional time periods are tested if indicated by previous tests. When the peak activity time has been determined, a dose response is initiated using 10 animals/group at that time period. The ED50 and 95% confidence interval are calculated by computer probit analysis.

[5] = tested on: scopolamine induced memory deficit; assay: Dark Avoidance Assay (scopolamine-induced memory deficit); format: in vivo; conditions: mice, 24 hours
Description: In this assay mice are tested for their ability to remember an unpleasant stimulus for a period of 24 hours. A mouse is placed in a chamber that contains a dark compartment; a strong incandescent light drives it to the dark compartment, where an electric shock is administered through metal plates on the floor. The animal is removed from the testing apparatus and tested again, 24 hours later, for the ability to remember the electric shock. If scopolamine, an anticholinergic that is known to cause memory impairment, is administered before an animal's initial exposure to the test chamber, the animal re-enters the dark compartment shortly after being placed in the test chamber 24 hours later.

[6] = mice, s.c., at peak time of drug activity

| SMILES | ED50 ([1]; mice, p.o., TBZ 60 mg/kg i.p.) | ED50 [2, 6] | ED50 ([3]; mice, s.c.) | further results |
| --- | --- | --- | --- | --- |
| CNCCCN1c2ccccc2CCc2ccccc21 [Desipramine, reference compound] |  |  |  | ED50 [1]: 2.3 mg/kg |
| CN(c1ccncc1)n1c2ccccc2c2ccccc21.O=C(O)/C=C\C(=O)O [N-Methyl-N-(4-pyridinyl)-9H-carbazol-9-amine maleate] | 1.5 mg/kg | 0.19 mg/kg | 0.1 mg/kg |  |
| CCN(c1ccncc1)n1c2ccccc2c2ccccc21.O=C(O)/C=C\C(=O)O [N-Ethyl-N-(4-pyridinyl)-9H-carbazol-9-amine maleate] | 2.2 mg/kg | 4.3 mg/kg | 1.1 mg/kg | ED50 [4]: 6.4 mg/kg |
| Cl.Fc1cnccc1Nn1c2ccccc2c2ccccc21 [N-(3-Fluoro-4-pyridinyl)-9H-carbazol-9-amine hydrochloride] |  | 0.7 mg/kg | 1.3 mg/kg |  |
| C=CCN(c1ccncc1)n1c2ccccc2c2ccccc21.O=C(O)/C=C\C(=O)O [N-(2-Propenyl)-N-(4-pyridinyl)-9H-carbazol-9-amine maleate] | 3.7 mg/kg | 1.2 mg/kg | 1 mg/kg |  |
| Brc1ccc2c(c1)c1ccccc1n2Nc1ccncc1.O=C(O)/C=C\C(=O)O [3-Bromo-N-(4-pyridinyl)-9H-carbazol-9-amine maleate] | 7.6 mg/kg | 1.1 mg/kg | 1.2 mg/kg | % of animals with scopolamine induced memory deficit reversal ([5]; dose 0.31 mg/kg body weight): 33% |
| CCCCN(c1ccncc1)n1c2ccccc2c2ccccc21.Cl [N-(Butyl)-N-(4-pyridinyl)-9H-carbazol-9-amine hydrochloride] | 5.2 mg/kg |  |  | % of animals with scopolamine induced memory deficit reversal ([5]; dose 0.63 mg/kg body weight): 33% |
| O=C(O)/C=C\C(=O)O.c1ccc2c(c1)c1ccccc1n2Nc1ccncc1 [N-(4-Pyridinyl)-9H-carbazol-9-amine maleate] | 2.3 mg/kg | 0.4 mg/kg | 0.5 mg/kg | ED50 [4]: 23.4 mg/kg |
| CCCN(c1ccncc1F)n1c2ccccc2c2ccccc21 [N-(3-Fluoro-4-pyridinyl)-N-propyl-9H-carbazol-9-amine] |  |  |  | % of animals with scopolamine induced memory deficit reversal ([5]; dose 1.25 mg/kg body weight): 27% |
| CCCN(c1ccncc1)n1c2ccccc2c2ccccc21.O=C(O)/C=C\C(=O)O [N-(Propyl)-N-(4-pyridinyl)-9H-carbazol-9-amine maleate] | 1.5 mg/kg | 9.8 mg/kg | 4.3 mg/kg | ED50 [4]: 16.9 mg/kg; % of animals with scopolamine induced memory deficit reversal ([5]; dose 2.5 mg/kg body weight): 33% |
| CNC(=O)Oc1ccc2c(c1)[C@]1(C)CCN(C)[C@@H]1N2C [Physostigmine, reference compound] |  |  |  | % of animals with scopolamine induced memory deficit reversal ([5]; dose 0.31 mg/kg body weight): 20% |
| CC(C)=CCN1CCC2(C)c3cc(O)ccc3CC1C2C (stereo not shown) [Pentazocin, reference compound] |  |  |  | ED50 [2]: 3.9 mg/kg; ED50 [3]: 1.3 mg/kg |
| CNC1=Nc2ccc(Cl)cc2C(c2ccccc2)=[N+]([O-])C1 [Chlordiazepoxide, reference compound] |  |  |  | ED50 [4]: 8 mg/kg |
| O=C1CC2(CCCC2)CC(=O)N1CCCCN(c1ccncc1)n1c2ccccc2c2ccccc21 [8-[4-(9H-carbazol-9-yl-4-pyridinylamino)butyl]-8-azaspiro[4.5]decane-7,9-dione] |  |  |  | % of animals with scopolamine induced memory deficit reversal ([5]; dose 5.0 mg/kg body weight): 60% |
